Measured values from patent US9856247B2, “4-methyl-dihydropyrimidines for the treatment and prophylaxis of Hepatitis B virus infection” (Hoffmann-La Roche Inc., priority 2012, dated 2018).
Read-outs that look alike come from different tables or passages of the source.

Legend:
HBV DNA = assay: Anti-HBV activity in HepDE19 cells (HBV DNA dot-blot); format: cell-based, Hepatitis B virus (HBV)
Source text: Cells and culture conditions: HepDE19 (Haitao Guo et al, Journal of Virology, 81, November 2007, 12472-12484; Richeng Mao et al, Journal of Virology, 85, January 2011, 1048-1057) cells were derived from HepG2 (ATCC, American Type Culture Collection) cells through transfection with pTet-off plasmid (Clontech) that expresses the Tet-responsive transcriptional activator and pTREHBVDE plasmid in which HBV pgRNA expression is controlled by a CMV early promoter with a tetracycline-responsive element. The transfected cells were selected with G418 (also known as Genticin, purchased from Invitrogen). […] These cells were maintained in Dulbecco's modified Eagle's medium (DMEM)-F12 medium (Invitrogen) supplemented with 10% fetal bovine serum, 100 U/ml penicillin, and 100 μg/ml streptomycin, 0.5 mg/ml of G418 and 1 μg/ml tetracycline.
Anti-HBV activity and cytotoxicity: HepDE19 cells were seeded into 96-well plates (3×10^4 cells/well) with tetracycline-free medium and incubated overnight at 37° C. The test or control compounds were serially half-log diluted with medium and added into the plates (the final concentration of DMSO kept at 0.5% in each well). Five days after compound treatment, cells were washed with PBS and lysed with 50 mM Tris-1 mM EDTA-0.2% CA-630 (pH 8.0) at 37° C. for 20 min. After centrifugation to remove nuclei and other debris, the supernatant was transferred into a new plate and incubated with 2M NaOH/20×SSC (3M NaCl, 0.3M Sodium citrate, pH7.0) at rt for 30 min. Then the samples were transferred to nylon membrane and neutralized with 1M Tris (pH7.4)/2M NaCl. The presence of HBV DNA was detected by dot-blot with DIG-labeled HBV specific DNA probe and quantified by dot density. The compound concentrations that inhibited HBV DNA by 50% (EC50) were determined (See Table 1).

in vitro = details: human
Experimental: The transfected cells were selected with G418 (also known as Genticin, purchased from Invitrogen). […] These cells were maintained in Dulbecco's modified Eagle's medium (DMEM)-F12 medium (Invitrogen) supplemented with 10% fetal bovine serum, 100 U/ml penicillin, and 100 μg/ml streptomycin, 0.5 mg/ml of G418 and 1 μg/ml tetracycline.
To determine if the anti-HBV effect of compound is due to cytotoxicity, HepDE 19 cells (5×10^3 cells/well) were seeded into 96-well plates and compounds were treated as described above. […] Four hours after incubation at 37° C., the absorbance at wavelengths of 450 nm and 630 nm (OD450 and OD630) was recorded by a plate reader.

[1] = Hepatitis B virus, 120 h, HepDE19 cells, five days after compound treatment, concentration that inhibited HBV DNA by 50%, read-out: HepDe19 EC50
[2] = Hepatitis B virus, HepDE19, 120 h, read-out: HepDe19 EC50

COC(=O)C1=C(CN2CC(F)(F)C[C@H]2C(=O)O)NC(c2nccn2C)=N[C@@]1(C)c1ccc(F)cc1 [Example 27, (S)-6-((S)-2-carboxy-4,4-difluoro-pyrrolidin-1-ylmethyl)-4-(4-fluoro-phenyl)-4-methyl-2-(1-methyl-1H-imidazol-2-yl)-1,4-dihydro-pyrimidine-5-carboxylic acid methyl ester]
EC50 (HBV DNA; [1]): 2.72 µM
CC50 at 5 days (in vitro): 55.8 µM

COC(=O)C1=C(CN2CC(F)(F)C[C@H]2C(=O)O)NC(c2ncc(C)s2)=N[C@@]1(C)c1ccc(F)cc1 [Example 37, (S)-6-((S)-2-carboxy-4,4-difluoro-pyrrolidin-1-ylmethyl)-4-(4-fluoro-phenyl)-4-methyl-2-(5-methyl-thiazol-2-yl)-1,4-dihydro-pyrimidine-5-carboxylic acid methyl ester]
EC50 (HBV DNA; [1]): 0.47 µM
CC50 at 5 days (in vitro): 85 µM

COC(=O)C1=C(CN2CC(F)(F)C[C@H]2c2nnc(C)o2)NC(c2nccs2)=N[C@@]1(C)c1ccc(F)cc1 [Example 57, (S)-6-[(S)-4,4-difluoro-2-(5-methyl-[1,3,4]oxadiazol-2-yl)-pyrrolidin-1-ylmethyl]-4-(4-fluoro-phenyl)-4-methyl-2-thiazol-2-yl-1,4-dihydro-pyrimidine-5-carboxylic acid methyl ester]
EC50 (HBV DNA; [1]): 1.56 µM
CC50 at 5 days (in vitro): ≥ 100 µM

COC(=O)C1=C(CN2CCOC[C@H]2CO)NC(c2nccs2)=NC1(C)c1ccc(F)cc1 (stereo partly drawn) [Example 53, 4-(4-fluoro-phenyl)-6-((R)-3-hydroxymethyl-morpholin-4-ylmethyl)-4-methyl-2-thiazol-2-yl-1,4-dihydro-pyrimidine-5-carboxylic acid methyl ester]
EC50 (HBV DNA; [1]): 1.75 µM
CC50 at 5 days (in vitro): ≥ 100 µM

COC(=O)C1=C(CN2CC(F)(F)C[C@H]2C(=O)NS(C)(=O)=O)NC(c2nccs2)=N[C@@]1(C)c1ccc(F)cc1 [Example 51, (S)-6-((S)-4,4-difluoro-2-methanesulfonylaminocarbonyl-pyrrolidin-1-ylmethyl)-4-(4-fluoro-phenyl)-4-methyl-2-thiazol-2-yl-1,4-dihydro-pyrimidine-5-carboxylic acid methyl ester]
EC50 (HBV DNA; [1]): 18.2 µM
CC50 at 5 days (in vitro): 90 µM

COC(=O)C1=C(CN2CC(F)(F)C[C@H]2C(C)(C)O)NC(c2nccs2)=N[C@@]1(C)c1ccc(F)cc1 [Example 54, (S)-6-[(S)-4,4-difluoro-2-(1-hydroxy-1-methyl-ethyl)-pyrrolidin-1-ylmethyl]-4-(4-fluoro-phenyl)-4-methyl-2-thiazol-2-yl-1,4-dihydro-pyrimidine-5-carboxylic acid methyl ester]
EC50 (HBV DNA; [1]): 0.7 µM
CC50 at 5 days (in vitro): 50.4 µM

COC(=O)C1=C(CN2CC(F)(F)C[C@H]2C(=O)O)NC(c2sccc2F)=N[C@]1(C)c1ccc(F)cc1 [Example 42, (R)-6-((S)-2-carboxy-4,4-difluoro-pyrrolidin-1-ylmethyl)-4-(4-fluoro-phenyl)-2-(3-fluoro-thiophen-2-yl)-4-methyl-1,4-dihydro-pyrimidine-5-carboxylic acid methyl ester]
EC50 (HBV DNA; [1]): 6.81 µM
CC50 at 5 days (in vitro): ≥ 100 µM

COC(=O)C1=C(CN2CC(F)(F)C[C@H]2C(=O)O)NC(c2ncc(Cl)s2)=N[C@@]1(C)c1ccc(F)cc1 [Example 33, (S)-6-((S)-2-carboxy-4,4-difluoro-pyrrolidin-1-ylmethyl)-2-(5-chloro-thiazol-2-yl)-4-(4-fluoro-phenyl)-4-methyl-1,4-dihydro-pyrimidine-5-carboxylic acid methyl ester]
EC50 (HBV DNA; [1]): 2.07 µM
CC50 at 5 days (in vitro): 80 µM

COC(=O)C1=C(CN2CC(F)(F)C[C@H]2C(=O)O)NC(c2sccc2F)=N[C@@]1(C)c1ccc(F)cc1 [Example 41, (S)-6-((S)-2-carboxy-4,4-difluoro-pyrrolidin-1-ylmethyl)-4-(4-fluoro-phenyl)-2-(3-fluoro-thiophen-2-yl)-4-methyl-1,4-dihydro-pyrimidine-5-carboxylic acid methyl ester]
EC50 (HBV DNA; [1]): 0.285 µM
CC50 at 5 days (in vitro): ≥ 100 µM

COC(=O)C1=C(CN2CC(F)(F)C[C@H]2CO)NC(c2nccs2)=N[C@@]1(C)c1ccc(F)cc1 [Example 55, (S)-6-((S)-4,4-difluoro-2-hydroxymethyl-pyrrolidin-1-ylmethyl)-4-(4-fluoro-phenyl)-4-methyl-2-thiazol-2-yl-1,4-dihydro-pyrimidine-5-carboxylic acid methyl ester]
EC50 (HBV DNA; [1]): 0.067 µM
CC50 at 5 days (in vitro): ≥ 100 µM

COC(=O)C1=C(CN2CCOC[C@H]2C(=O)O)NC(c2ccc(F)cn2)=NC1(C)c1ccc(F)cc1 (stereo partly drawn) [Example 10, 4-[6-(4-Fluoro-phenyl)-2-(5-fluoro-pyridin-2-yl)-5-methoxycarbonyl-6-methyl-3,6-dihydro-pyrimidin-4-ylmethyl]-morpholine-(S)-3-carboxylic acid]
EC50 (HBV DNA; [1]): 7.04 µM
CC50 at 5 days (in vitro): > 100 µM

COC(=O)C1=C(CN2CCOC[C@H]2C(=O)O)NC(c2nccn2C)=N[C@@]1(C)c1ccc(F)cc1 [Example 30, (S)-4-[(S)-6-(4-fluoro-phenyl)-5-methoxycarbonyl-6-methyl-2-(1-methyl-1H-imidazol-2-yl)-3,6-dihydro-pyrimidin-4-ylmethyl]-morpholine-3-carboxylic acid]
EC50 (HBV DNA; [1]): 6.77 µM
CC50 at 5 days (in vitro): ≥ 100 µM

COC(=O)C1=C(CN2CC(F)(F)C[C@H]2C(=O)OCCN(C)C)NC(c2nccs2)=N[C@@]1(C)c1ccc(F)cc1 [Example 46, (S)-6-[(S)-2-(2-dimethylamino-ethoxycarbonyl)-4,4-difluoro-pyrrolidin-1-ylmethyl]-4-(4-fluoro-phenyl)-4-methyl-2-thiazol-2-yl-1,4-dihydro-pyrimidine-5-carboxylic acid methyl ester]
EC50 (HBV DNA; [1]): 2.13 µM
CC50 at 5 days (in vitro): ≥ 100 µM

COC(=O)C1=C(CN2CCOC[C@H]2C(=O)OC)NC(c2nccs2)=NC1(C)c1ccc(F)cc1 (stereo partly drawn) [Example 5, 4-[6-(4-Fluoro-phenyl)-5-methoxycarbonyl-6-methyl-2-thiazol-2-yl-3,6-dihydro-pyrimidin-4-ylmethyl]-morpholine-(S)-3-carboxylic acid methyl ester]
EC50 (HBV DNA; [1]): 0.7 µM
CC50 at 5 days (in vitro): > 100 µM

COC(=O)C1=C(CN2CC(F)(F)C[C@H]2C(=O)O)NC(c2ccc(F)s2)=N[C@@]1(C)c1ccc(F)cc1 [Example 38, (S)-6-((S)-2-carboxy-4,4-difluoro-pyrrolidin-1-ylmethyl)-4-(4-fluoro-phenyl)-2-(5-fluoro-thiophen-2-yl)-4-methyl-1,4-dihydro-pyrimidine-5-carboxylic acid methyl ester]
EC50 (HBV DNA; [1]): 2.03 µM

COC(=O)C1=C(CN2CC(F)(F)C[C@H]2C(=O)O)NC(c2nccs2)=NC1(C)c1ccc(F)cc1 (stereo partly drawn) [Example 11, 6-(2-(S)-Carboxy-4,4-difluoro-pyrrolidin-1-ylmethyl)-4-(4-fluoro-phenyl)-4-methyl-2-thiazol-2-yl-1,4-dihydro-pyrimidine-5-carboxylic acid methyl ester]
EC50 (HBV DNA; [2]): 0.46 µM

COC(=O)C1=C(CN2CC(F)(F)C[C@H]2C(=O)O)NC(c2nccs2)=N[C@@]1(C)c1ccc(F)cc1 [Example 13, (S)-6-((S)-2-Carboxy-4,4-difluoro-pyrrolidin-1-ylmethyl)-4-(4-fluoro-phenyl)-4-methyl-2-thiazol-2-yl-1,4-dihydro-pyrimidine-5-carboxylic acid methyl ester]
EC50 (HBV DNA; [2]): 0.15 µM

COC(=O)C1=C(CN2CC(F)(F)C[C@@H]2C(=O)O)NC(c2nccs2)=NC1(C)c1ccc(F)cc1 (stereo partly drawn) [Example 12, 6-(2-(R)-Carboxy-4,4-difluoro-pyrrolidin-1-ylmethyl)-4-(4-fluoro-phenyl)-4-methyl-2-thiazol-2-yl-1,4-dihydro-pyrimidine-5-carboxylic acid methyl ester]
EC50 (HBV DNA; [2]): 6.59 µM

COC(=O)c1c(C)nc(-c2ncc(F)cc2F)nc1-c1ccc(F)cc1Cl [XLVI]
EC50 (HBV DNA; read-out: EC50 value, HBV DNA reduction in HepDE19 cell based assays): > 100 µM

COC(=O)C1=C(CN2CC(F)(F)C[C@H]2C(=O)OC)NC(c2nccs2)=N[C@@]1(C)c1ccc(F)cc1 [Example 45, (S)-6-((S)-4,4-difluoro-2-methoxycarbonyl-pyrrolidin-1-ylmethyl)-4-(4-fluoro-phenyl)-4-methyl-2-thiazol-2-yl-1,4-dihydro-pyrimidine-5-carboxylic acid methyl ester]
CC50 at 5 days (in vitro): ≥ 100 µM
